From US5843950A, “1,4-dihydropyridine compound and pharmaceutical composition containing the same” (Nikken Chemicals Co., Ltd., priority 1994, dated 1998)
Read-outs that look alike come from different tables or passages of the source.

Experiments:
[1] = tested on: KCl contraction in rat arteries (thoracic aorta); assay: Action easing KCl contraction in rat arteries (thoracic aorta ring); settings: read-out: IC50 value (50% inhibitory concentration of hyperpotassium contraction), Test Example 7, Table 7, 37° C.
Description: Action easing KCl contraction in rat arteries
The specimen was stabilized for approximately 60 minutes, then a potassium chloride solution was added to the Magnus tube to give a final concentration of […]. The positive control compound or the compound of the present invention was cumulatively added from 1×10^-10 M to 1×10^-4 M when the contraction reaction occurring at that time reached equilibrium. The contraction force was recorded by an FD-pickup (made by Nihon Kodensha) via a polygraph (made by Nihon Kodensha).

TxA2 synthesis = TxA2 synthesis inhibiting action test (human blood platelet microsomes); assay type: biochemical; settings: prostaglandin H2
Description: TxA2 Synthesis Inhibiting Action Test
One ml of a buffer (20 mM Tris-HCl buffer, 1 mM EDTA, pH 7.5) containing human blood platelet microsomes (50 μg protein/ml) and the test compound (final concentration 10^-7 M) was agitated, then incubated at 0° C. for 30 minutes. To this was added prostaglandin H2 (100 ng/2 μl). This was incubated at 23° C. for 3 minutes to cause a reaction. Next, 1M hydrochloric acid was added to make the solution acidic and stop the reaction, then this was neutralized by 1M Tris-Base and centrifuged at 3000 rpm for 20 minutes. The amount of the TxB2 in the supernatant was measured by the EIA method (Cayman Co. kit).

[2] = tested on: VCR resistant murine leukemia (P388/VCR) cells; assay: In vivo effect for overcoming resistance to vincristine in VCR resistant murine leukemia (P388/VCR) bearing mice; parameters: species or system CDF1 male mice
Description: In vivo test of action suppressing proliferation of cancer cells by concomitant use with anti-cancer drug
The number of survival days were found and the life prolonging rate (T/C) with respect to the controls was found. The effect in overcoming resistance to an anti-cancer drug (T/V) was found by the following formula.
Effect for overcoming resistance to an anti-cancer drug (T/V) %
=[Life prolonging rate (T/C) in case of concomitant use of VCR and the compound of the present invention]/[Life prolonging rate (T/C) in case of VCR alone]×100
Using Compound 18 to Compound 22 and Compound 32, the same procedure was followed as in Test Example 5 to find the effect for overcoming resistance to an anti-cancer drug in vincristine (VCR) resistant murine leukemia cell bearing mice.

[3] = tested on: KCl contraction in rat arteries (thoracic aorta); assay: Action easing KCl contraction in rat arteries (thoracic aorta ring); settings: read-out: IC50 value (50% inhibitory concentration of hypercalcemic contraction), Test Example 8, Table 8
[4] = Test Example 5, Table 5, T/C with VCR + compound over T/C with VCR alone ×100
[5] = Test Example 5, Table 5, VCR 100 μg/kg i.p. 5 days with compound 100 mg/kg (verapamil 60, nicardipine 75 mg/kg)
[6] = Test Example 6, Table 6, same procedure as Test Example 5

CCCC1C(C(=O)OCCCc2cccnc2)=C(C)NC(C)=C1C(=O)OCCCc1cccnc1 [Compound 2, 2,6-dimethyl-4-n-propyl-1,4-dihydropyridine-3,5-dicarboxylic acid bis[3-(3-pyridyl)propyl]ester]
IC50 [1]: > 30 µM | TxA2 synthesis inhibiting action Rate of suppression at 10^-7 mol (%) (TxA2 synthesis): 72.0%

CC1=C(C(=O)OCCCc2cccnc2)C(CC(C)(C)C)C(C(=O)OCCCc2cccnc2)=C(C)N1 [Compound 4, 2,6-dimethyl-4-(2,2-dimethylpropyl)-1,4-dihydropyridine-3,5-dicarboxylic acid bis[3-(3-pyridyl)propyl]ester]
IC50 [1]: 20.5 µM | Effect for overcoming resistance T/V (%) [2, 4]: 136% | Life prolonging rate T/C (%) [2, 5]: 145% | Mean days of survival [2, 5]: 14.5 days | TxA2 synthesis inhibiting action Rate of suppression at 10^-7 mol (%) (TxA2 synthesis): 49.1%

CC1=C(C(=O)OCCCc2cccnc2)C(C(C)c2ccccc2)C(C(=O)OCCCc2cccnc2)=C(C)N1 (centres unmarked) [Compound 7, 2,6-dimethyl-4-(1-phenylethyl)-1,4-dihydropyridine-3,5-dicarboxylic acid bis[3-(3-pyridyl)propyl]ester]
IC50 [1]: 13 µM

CC1=C(C(=O)OCCCc2cccnc2)C(C2CCCCC2)C(C(=O)OCCCc2cccnc2)=C(C)N1 [Compound 8, 2,6-dimethyl-4-cyclohexyl-1,4-dihydropyridine-3,5-dicarboxylic acid bis[3-(3-pyridyl)propyl]ester]
TxA2 synthesis inhibiting action Rate of suppression at 10^-7 mol (%) (TxA2 synthesis): 63.0%

CCOC(=O)C1CC1C1C(C(=O)OCCCc2cccnc2)=C(C)NC(C)=C1C(=O)OCCCc1cccnc1 (centres unmarked) [Compound 9, 2,6-dimethyl-4-(2-ethoxycarbonylcyclopropyl)-1,4-dihydropyridine-3,5-dicarboxylic acid bis[3-(3-pyridyl)propy]ester]
IC50 [1]: 11.5 µM

CC1=C(C(=O)OCCCc2cccnc2)C(C=Cc2ccco2)C(C(=O)OCCCc2cccnc2)=C(C)N1 [Compound 10, 2,6-dimethyl-4-(2-(2-furyl)ethenyl)-1,4-dihydropyridine-3,5-dicarboxylic acid bis[3-(3-pyridyl)propyl]ester]
IC50 [1]: > 30 µM

CC(C)=CCCC(C)CC1C(C(=O)OCCCc2cccnc2)=C(C)NC(C)=C1C(=O)OCCCc1cccnc1 (centres unmarked) [Compound 11, 2,6-dimethyl-4-(2,6-dimethyl-5-heptenyl)-1,4-dihydropyridine-3,5-dicarboxylic acid bis[3-(3-pyridyl)propyl]ester]
IC50 [1]: > 30 µM | Effect for overcoming resistance T/V (%) [2, 4]: 128% | Life prolonging rate T/C (%) [2, 5]: 137% | Mean days of survival [2, 5]: 13.7 days

CC1=C(C(=O)OCCCc2cccnc2)C(CCc2ccccc2)C(C(=O)OCCCc2cccnc2)=C(C)N1 [Compound 12, 2,6-dimethyl-4-(2-phenylethyl)-1,4-dihydropyridine-3,5-dicarboxylic acid bis[3-(3-pyridyl)propyl]ester]
IC50 [1]: > 30 µM

COC(=O)C1=C(C)NC(C)=C(C(=O)OCCCc2cccnc2)C1C(C)C (centres unmarked) [Compound 13, 2,6-dimethyl-4-isopropyl-1,4-dihydropyridine-3,5-dicarboxylic acid 3-methylester 5-[3-(3-pyridyl)propyl]ester]
IC50 [3]: 5.7 µM | TxA2 synthesis inhibiting action Rate of suppression at 10^-7 mol (%) (TxA2 synthesis): 71.4%

CCCCCCCCC1C(C(=O)OCCC#N)=C(C)NC(C)=C1C(=O)OCCCc1cccnc1 (centres unmarked) [Compound 14, 2,6-dimethyl-4-n-octyl-1,4-dihydropyridine-3,5-dicarboxylic acid 3-(2-cyanoethyl) ester, 5-[3-(3-pyridyl)propyl]ester]
IC50 [3]: 8.4 µM

CCC(C)C1C(C(=O)OCCCc2cccnc2)=C(C)NC(C)=C1C(=O)OCCCc1cccnc1 (centres unmarked) [Compound 19, 2,6-dimethyl-4-(1-methylpropyl)-1,4-dihydropyridine-3,5-dicarboxylic acid bis[3-(3-pyridyl)propyl]ester]
Effect for overcoming resistance T/V (%) [2, 6]: 173% | Life prolonging rate T/C (%) [2, 6]: 176% | Mean days of survival [2, 6]: 18.8 days

CCC(CC)C1C(C(=O)OCCCc2cccnc2)=C(C)NC(C)=C1C(=O)OCCCc1cccnc1 [Compound 20, 2,6-dimethyl-4-(1-ethylpropyl)-1,4-dihydropyridine-3,5-dicarboxylic acid bis[3-(3-pyridyl)propyl]ester]
Effect for overcoming resistance T/V (%) [2, 6]: 150% | Life prolonging rate T/C (%) [2, 6]: 148% | Mean days of survival [2, 6]: 15.8 days | IC50 [3]: 4.2 µM

CCCCC(CC)C1C(C(=O)OCCCc2cccnc2)=C(C)NC(C)=C1C(=O)OCCCc1cccnc1 (centres unmarked) [Compound 21, 2,6-dimethyl-4-(1-ethylpentyl)-1,4-dihydropyridine-3,5-dicarboxylic acid bis[3-(3-pyridyl)propyl]ester]
Effect for overcoming resistance T/V (%) [2, 6]: 138% | Life prolonging rate T/C (%) [2, 6]: 140% | Mean days of survival [2, 6]: 15.0 days | IC50 [3]: 7 µM

CC1=C(C(=O)OCCCc2cccnc2)C(CC(C)CC(C)(C)C)C(C(=O)OCCCc2cccnc2)=C(C)N1 (centres unmarked) [Compound 22, 2,6-dimethyl-4-(2,4,4-trimethylpentyl)-1,4-dihydropyridine-3,5-dicarboxylic acid bis[3-(3-pyridyl)propyl]ester]
Effect for overcoming resistance T/V (%) [2, 6]: 150% | Life prolonging rate T/C (%) [2, 6]: 148% | Mean days of survival [2, 6]: 15.8 days | IC50 [3]: 54 µM

CCCCCCCCC1C(C(=O)OCCN2CCN(Cc3cccnc3)CC2)=C(C)NC(C)=C1C(=O)OCCN1CCN(Cc2cccnc2)CC1 [Compound 23, 2,6-dimethyl-4-n-octyl-1,4-dihydropyridine-3,5-dicarboxylic acid bis[2-(4-(3-pyridylmethyl)piperazin-1-yl)ethyl]ester]
Effect for overcoming resistance T/V (%) [2, 4]: 123% | Life prolonging rate T/C (%) [2, 5]: 132% | Mean days of survival [2, 5]: 13.2 days

CC1=C(C(=O)OCCCc2cccnc2)C(C(C)C)C(C(=O)OCCN2CCN(Cc3cccnc3)CC2)=C(C)N1 (centres unmarked) [Compound 28, 2,6-dimethyl-4-isopropyl-1,4-dihydropyridine-3,5-dicarboxylic acid 3-[2-(4-(3-pyridylmethyl)piperazin-1-yl)ethyl]ester, 5-[3-(3-pyridyl)propyl]ester]
TxA2 synthesis inhibiting action Rate of suppression at 10^-7 mol (%) (TxA2 synthesis): 60.2%

CC1=C(C(=O)OCCCCc2cccnc2)C(C(C)C)C(C(=O)OCCCCc2cccnc2)=C(C)N1 [Compound 30, 2,6-dimethyl-4-isopropyl-1,4-dihydropyridine-3,5-dicarboxylic acid bis[4-(3-pyridyl)butyl]ester]
TxA2 synthesis inhibiting action Rate of suppression at 10^-7 mol (%) (TxA2 synthesis): 69.7%

CCCCCC#CC1C(C(=O)OCCCc2cccnc2)=C(C)NC(C)=C1C(=O)OCCCc1cccnc1 [Compound 32, 2,6-dimethyl-4-(1-heptynyl)-1,4-dihydropyridine-3,5-dicarboxylic acid bis[3-(3-pyridyl)propyl]ester]
Effect for overcoming resistance T/V (%) [2, 6]: 133% | Life prolonging rate T/C (%) [2, 6]: 136% | Mean days of survival [2, 6]: 14.5 days | IC50 [3]: 10.5 µM

CC1=C(C(=O)OCCCc2cccnc2)C(CC2CCCC(C)(C)C2)C(C(=O)OCCCc2cccnc2)=C(C)N1 (centres unmarked) [Compound 33, 2,6-dimethyl-4-(3,3-dimethylcyclohexylmethyl)-1,4-dihydropyridine-3,5-dicarboxylic acid bis[3-(3-pyridyl)propyl]ester]
IC50 [3]: 6.2 µM

CC1=C(C(=O)OCCCc2cccnc2)CC(C(=O)OCCCc2cccnc2)=C(C)N1 [Control 1, reference compound]
TxA2 synthesis inhibiting action Rate of suppression at 10^-7 mol (%) (TxA2 synthesis): 74.7%

CC1=C(C(=O)OCc2cccnc2)C(c2ccccc2[N+](=O)[O-])C(C(=O)OCc2cccnc2)=C(C)N1 [Control 2, reference compound]
TxA2 synthesis inhibiting action Rate of suppression at 10^-7 mol (%) (TxA2 synthesis): 77.9%

CC1=C(C(=O)OCCCc2cccnc2)C(c2ccc(C(=O)O)cc2)C(C(=O)OCCCc2cccnc2)=C(C)N1 [Control 3, reference compound]
TxA2 synthesis inhibiting action Rate of suppression at 10^-7 mol (%) (TxA2 synthesis): 37.6%

COCCOC(=O)C1=C(C)NC(C)=C(C(=O)OC(C)C)C1c1cccc([N+](=O)[O-])c1 (centres unmarked) [Nimodipine, reference compound]
IC50 [1]: 0.08 µM

O=C(O)/C=C/c1ccc(Cn2ccnc2)cc1 [OKY-046, reference compound]
TxA2 synthesis inhibiting action Rate of suppression at 10^-7 mol (%) (TxA2 synthesis): 86.4%

COc1ccc(CCN(C)CCCC(C#N)(c2ccc(OC)c(OC)c2)C(C)C)cc1OC (centres unmarked) [Verapamil, verapamil, reference compound]
IC50 [1]: 2.35 µM | Effect for overcoming resistance T/V (%) [2, 4]: 127% | Life prolonging rate T/C (%) [2, 5]: 136% | Mean days of survival [2, 5]: 13.6 days
